Measured values as given in ChEMBL document CHEMBL1149459, “Partial structures of ketoconazole as modulators of the large conductance calcium-activated potassium channel (BK(Ca))” (Bioorg Med Chem Lett, 2006).

Key:
[1] = molecular target: T1, Large conductance calcium-activated potassium channel (Bos taurus) (UniProt Q28204+Q28067); experiment: Inhibition of large conductance calcium-activated potassium channel in bovine smooth muscle cells at 10 uM; assay type: functional, cell-based
[2] = molecular target: T1, Large conductance calcium-activated potassium channel (Bos taurus); experiment: Inhibition of large conductance calcium-activated potassium channel in bovine smooth muscle cells at 30 uM; assay type: functional, cell-based

Structure (SMILES)	inhibition [1]	inhibition [2]
Clc1ccc([C@@]2(Cn3ccnc3)OC[C@H](COc3ccc(N4CCCCC4)cc3)O2)c(Cl)c1	80%	
Cc1ccc(S(=O)(=O)OC[C@H]2CO[C@](Cn3ccnc3)(c3ccc(Cl)cc3Cl)O2)cc1		2%
Clc1ccc([C@@]2(Cn3ccnc3)OC[C@H](COc3ccc(Br)cc3)O2)c(Cl)c1		95%

The next lines start with the values.

inhibition [1]	inhibition [2]	Structure (SMILES)
	40%	O=C(OC[C@H]1CO[C@](Cn2ccnc2)(c2ccc(Cl)cc2Cl)O1)c1ccccc1
	73%	Clc1ccc([C@@]2(Cn3ccnc3)OC[C@H](COc3ccccc3)O2)c(Cl)c1
